Assay results: patent US8785489B2, “Heteroaryl substituted indole compounds useful as MMP-13 inhibitors” (Boehringer Ingelheim International GmbH, priority 2008, dated 2014)

Target: MMP13 (Homo sapiens (Human), UniProt P45452)
Assay: EnzoLyte 520 Generic MMP Assay Kit, 5-FAM/QXL 520 FRET peptide substrate
Assay type: biochemical
Description: The EnzoLyte™ 520 Generic MMP Assay Kit (AnaSpec Inc.) can detect the activity of several MMPs including MMP-1, 2, 3, 7, 8, 9, 13, and 14. This kit uses a 5-FAM/QXL™ 520 fluorescence resonance energy transfer (FRET) peptide as an MMP substrate. In the intact FRET peptide, the fluorescence of 5-FAM is quenched by QXL™ 520. Upon cleavage into two separate fragments by MMPs, the fluorescence of 5-FAM is recovered, and can be monitored at excitation/emission wavelengths=490 nm/520 nm. The assays are performed in a convenient 96-well or 384-well microplate format.

Compound | IC50 [nM]
Cc1noc(-c2cc3cc(-c4cc(C(=O)NCc5cccs5)nn4C)ccc3[nH]2)n1 | 44
CCOC(=O)c1cc2cc(-c3ccnc(C(=O)NCc4ccncc4)c3)ccc2[nH]1 [5-{2-[(Pyridin-4-ylmethyl)-carbamoyl]-pyridin-4-yl}-1H-indole-2-carboxylic acid ethyl ester] | 94
Cc1cc(-c2cc3cc(-c4cc(C(=O)NCc5ccc(C(=O)O)cc5)nn4C)ccc3[nH]2)cc(F)n1 | 53
CCOC(=O)c1cc2cc(-c3cc(C(=O)NCc4ccc(CC(=O)O)cc4)nn3C)ccc2[nH]1 | 3
CCOC(=O)c1cc2cc(-c3cc(C(=O)NCc4ccncc4)nn3C)ccc2[nH]1 | 97
Cc1nc(-c2cc3cc(-c4ccnc(C(=O)NCc5ccncc5)c4)ccc3[nH]2)no1 | 38
Cn1nc(C(=O)NCc2ccc(C(=O)O)cc2)cc1-c1ccc2[nH]c(C3=NCCO3)cc2c1 | 43
Cn1nc(C(=O)NCc2ccc(C(=O)O)cc2)cc1-c1ccc2[nH]c(-c3ccncc3)cc2c1 | 0.8
Cn1nc(C(=O)NCc2ccc(C(=O)O)cc2)cc1-c1ccc2[nH]c(-c3ncccn3)cc2c1 | 1.6
Cc1noc(-c2cc3cc(-c4cc(C(=O)NCc5cscn5)nn4C)ccc3[nH]2)n1 [1-methyl-5-[2-(3-methyl-1,2,4-oxadiazol-5-yl)-1H-indol-5-yl]-N-(1,3-thiazol-4-ylmethyl)-1H-pyrazole-3-carboxamide] | 94
Cc1noc(-c2cc3cc(-c4cc(C(=O)NCc5ccco5)nn4C)ccc3[nH]2)n1 | 27
CCOC(=O)c1cc2cc(-c3cc(C(=O)NCc4ccc(CC(=O)OC)cc4)nn3C)ccc2[nH]1 | 51
O=C(NCc1ccncc1)c1cc(-c2ccc3[nH]c(-c4ccncc4)cc3c2)ccn1 [4-(2-Pyridin-4-yl-1H-indol-5-yl)-pyridine-2-carboxylic acid (pyridin-4-ylmethyl)-amide] | 62
CCOC(=O)c1cc2cc(-c3ccnc(C(=O)NCc4ccc(=O)[nH]c4)c3)ccc2[nH]1 | 35
CCOC(=O)c1cc2cc(-c3ccnc(C(=O)NCc4ccc(C(=O)O)cc4)c3)ccc2[nH]1 | 0.7
Cn1nc(C(=O)NCc2ccc(C(=O)O)cc2)cc1-c1ccc2[nH]c(-c3cccnc3)cc2c1 | 3
Cc1noc(-c2cc3cc(-c4cc(C(=O)NCc5ccc(F)cc5)nn4C)ccc3[nH]2)n1 | 26
Cn1cc(-c2cc3cc(-c4cc(C(=O)NCc5ccc(C(=O)O)cc5)nn4C)ccc3[nH]2)cn1 | 1.5

Compound | IC50 [nM]
Cc1noc(-c2cc3cc(-c4cc(C(=O)NCc5ccno5)nn4C)ccc3[nH]2)n1 [N-(isoxazol-5-ylmethyl)-1-methyl-5-[2-(3-methyl-1,2,4-oxadiazol-5-yl)-1H-indol-5-yl]-1H-pyrazole-3-carboxamide] | 19
Cn1nc(C(=O)NCc2ccc(C(=O)O)cc2)cc1-c1ccc2[nH]c(-c3ccnc(F)c3)cc2c1 | 2
Cc1cc(Cn2cc(-c3nc(C(=O)NCc4ccc(C(=O)O)cc4)[nH]c3C)cn2)ccc1F | 88
Cc1noc(-c2cc3cc(-c4cc(C(=O)NCc5cnn(C)c5)nn4C)ccc3[nH]2)n1 [1-methyl-5-[2-(3-methyl-1,2,4-oxadiazol-5-yl)-1H-indol-5-yl]-N-[(1-methyl-1H-pyrazol-4-yl)methyl]-1H-pyrazole-3-carboxamide] | 10
CCOC(=O)c1cc2nc(-c3nc(C(=O)NCc4ccncc4)[nH]c3C)ccc2[nH]1 | 95
Cc1noc(-c2cc3cc(-c4cc(C(=O)NCc5nccs5)nn4C)ccc3[nH]2)n1 [1-methyl-5-[2-(3-methyl-1,2,4-oxadiazol-5-yl)-1H-indol-5-yl]-N-(1,3-thiazol-2-ylmethyl)-1H-pyrazole-3-carboxamide] | 73
CCOC(=O)c1cc2cc(-c3nc(C(=O)NCc4ccncc4)[nH]c3C)ncc2[nH]1 | 7
Cc1cc(Cn2cc(-c3ccnc(C(=O)NCc4ccc(C(=O)O)cc4)c3)cn2)ccc1F | 130
Cc1noc(-c2cc3cc(-c4cc(C(=O)NCC5CCOCC5)nn4C)ccc3[nH]2)n1 [1-methyl-5-[2-(3-methyl-1,2,4-oxadiazol-5-yl)-1H-indol-5-yl]-N-(tetrahydro-2H-pyran-4-ylmethyl)-1H-pyrazole-3-carboxamide] | 116
Cc1noc(-c2cc3cc(-c4cc(C(=O)NCc5ccc(C(=O)O)cc5)ncc4C)ccc3[nH]2)n1 | 0.2
Cc1noc(-c2cc3cc(-c4cc(C(=O)NCc5ccc(C(=O)O)cc5)nn4C)ccc3[nH]2)n1 | 0.2
Cc1noc(-c2cc3cc(-c4cc(C(=O)NCc5ccncc5)nn4C)ccc3[nH]2)n1 | 4
Cc1noc(-c2cc3cc(-c4cc(C(=O)NCc5ccnn5C)nn4C)ccc3[nH]2)n1 [1-methyl-5-[2-(3-methyl-1,2,4-oxadiazol-5-yl)-1H-indol-5-yl]-N-[(1-methyl-1H-pyrazol-5-yl)methyl]-1H-pyrazole-3-carboxamide] | 125
CCOC(=O)c1cc2cc(-c3nc(C(=O)NCc4ccncc4)[nH]c3C)ccc2[nH]1 | 2
Cn1nc(C(=O)NCc2ccc(C(=O)O)cc2)cc1-c1ccc2[nH]c(-c3ccc(F)nc3)cc2c1 | 48
Cc1noc(-c2cc3cc(-c4ccnc(C(=O)NCc5ccncc5)c4)ccc3[nH]2)n1 | 12
Cc1noc(-c2cc3cc(-c4cc(C(=O)NCc5ccn(C)n5)nn4C)ccc3[nH]2)n1 [1-methyl-5-[2-(3-methyl-1,2,4-oxadiazol-5-yl)-1H-indol-5-yl]-N-[(1-methyl-1H-pyrazol-3-yl)methyl]-1H-pyrazole-3-carboxamide] | 185

Next, values leading:

IC50 [nM] | Compound
3 | Cc1noc(-c2cc3cc(-c4nc(C(=O)NCc5ccoc5)[nH]c4C)ccc3[nH]2)n1
2 | Cc1noc(-c2cc3cc(-c4nc(C(=O)NCc5nccs5)[nH]c4C)ccc3[nH]2)n1 [5-methyl-4-[2-(3-methyl-1,2,4-oxadiazol-5-yl)-1H-indol-5-yl]-N-(1,3-thiazol-2-ylmethyl)-1H-imidazole-2-carboxamide]
10 | Cc1noc(-c2cc3cc(-c4nc(C(N)=O)[nH]c4C)ccc3[nH]2)n1 [5-methyl-4-[2-(3-methyl-1,2,4-oxadiazol-5-yl)-1H-indol-5-yl]-1H-imidazole-2-carboxamide]
113 | Cc1noc(-c2cc3cc(-c4nc(C(=O)N5CCCC5)[nH]c4C)ccc3[nH]2)n1
1.9 | Cc1noc(-c2cc3cc(-c4nc(C(=O)NCC5COCCO5)[nH]c4C)ccc3[nH]2)n1 (centres unmarked)
3 | Cc1noc(-c2cc3cc(-c4nc(C(=O)NCc5ccccn5)[nH]c4C)ccc3[nH]2)n1
18 | Cc1[nH]c(C(=O)NCc2ccncc2)nc1-c1ccc2[nH]c(-c3nc(C(C)C)no3)cc2c1
1.1 | Cc1noc(-c2cc3cc(-c4nc(C(=O)NCC5CCOCC5)[nH]c4C)ccc3[nH]2)n1 [5-methyl-4-[2-(3-methyl-1,2,4-oxadiazol-5-yl)-1H-indol-5-yl]-N-(tetrahydro-2H-pyran-4-ylmethyl)-1H-imidazole-2-carboxamide]
0.2 | Cc1noc(-c2cc3cc(-c4nc(C(=O)NCc5ccc(C(=O)O)cc5)[nH]c4C)ccc3[nH]2)n1
0.4 | Cc1noc(-c2cc3cc(-c4nc(C(=O)NCc5cnn(C)c5)[nH]c4C)ccc3[nH]2)n1 [5-methyl-4-[2-(3-methyl-1,2,4-oxadiazol-5-yl)-1H-indol-5-yl]-N-[(1-methyl-1H-pyrazol-4-yl)methyl]-1H-imidazole-2-carboxamide]
4 | Cc1noc(-c2cc3cc(-c4nc(C(=O)NCc5nnc6n5CCC6)[nH]c4C)ccc3[nH]2)n1
17 | Cc1noc(-c2cc3cc(-c4nc(C(=O)NCc5nnc(C)[nH]5)[nH]c4C)ccc3[nH]2)n1
106 | Cc1noc(-c2cc3cc(-c4nc(C(=O)NC5CCOCC5)[nH]c4C)ccc3[nH]2)n1
10 | CCNC(=O)c1nc(-c2ccc3[nH]c(-c4nc(C)no4)cc3c2)c(C)[nH]1
0.9 | Cc1noc(-c2cc3cc(-c4nc(C(=O)NCc5noc(C)n5)[nH]c4C)ccc3[nH]2)n1
6 | Cc1noc(-c2cc3cc(-c4nc(C(=O)NCc5nnc[nH]5)[nH]c4C)ccc3[nH]2)n1
2 | Cc1noc(-c2cc3cc(-c4nc(C(=O)NCc5ccccc5)[nH]c4C)ccc3[nH]2)n1 [N-benzyl-5-methyl-4-[2-(3-methyl-1,2,4-oxadiazol-5-yl)-1H-indol-5-yl]-1H-imidazole-2-carboxamide]
15 | Cc1noc(-c2cc3cc(-c4nc(C(=O)NC(C)c5cccs5)[nH]c4C)ccc3[nH]2)n1 (centres unmarked)
6 | Cc1noc(-c2cc3cc(-c4nc(C(=O)NCc5ccc(F)cc5)[nH]c4C)ccc3[nH]2)n1
0.95 | Cc1noc(-c2cc3cc(-c4nc(C(=O)NCc5ccnc(C#N)c5)[nH]c4C)ccc3[nH]2)n1 [N-[(2-cyanopyridin-4-yl)methyl]-5-methyl-4-[2-(3-methyl-1,2,4-oxadiazol-5-yl)-1H-indol-5-yl]-1H-imidazole-2-carboxamide]
14 | Cc1noc(-c2cc3cc(-c4cc(C(=O)NCc5ccncc5)ncc4C)ccc3[nH]2)n1
18 | Cc1noc(-c2cc3cc(-c4nc(C(=O)NCc5ccc(C(O)C(F)(F)F)cc5)[nH]c4C)ccc3[nH]2)n1 (centres unmarked)
3 | Cc1noc(-c2cc3cc(-c4nc(C(=O)NCC5CCCO5)[nH]c4C)ccc3[nH]2)n1 (centres unmarked) [5-methyl-4-[2-(3-methyl-1,2,4-oxadiazol-5-yl)-1H-indol-5-yl]-N-(tetrahydrofuran-2-ylmethyl)-1H-imidazole-2-carboxamide]
6 | Cc1noc(-c2cc3cc(-c4nc(C(=O)NCC5(O)CCOCC5)[nH]c4C)ccc3[nH]2)n1
190 | COC(=O)c1cc(-c2ccc3[nH]c(-c4nc(C)no4)cc3c2)n(C)n1
2 | Cc1noc(-c2cc3cc(-c4nc(C(=O)NCc5cccs5)[nH]c4C)ccc3[nH]2)n1
0.2 | Cc1noc(-c2cc3cc(-c4nc(C(=O)NCc5ccc(=O)[nH]c5)[nH]c4C)ccc3[nH]2)n1
